How the values were obtained:
Water solubility = type: physicochemical
[1] = Fluorescence response of BODIPY receptors in H2O/30% ACN upon titration with various anions; type: binding; details: 70% water/30% acetonitrile
Description: (§1) Any observed fluorescence quenching in water could be readily circumvented by addition of a small amount of organic co-solvent. Preliminary solution-phase fluorescence sensing studies of both receptors were thus carried out in 70% water/30% acetonitrile.

[2] = pKa determined by monitoring changes in fluorescence with pH; type: physicochemical; details: for pKa1 / pKa2: emission intensity change with changing pH; for amine pKa: monitoring changes in fluorescence with pH
Description: FIG. 16. XB3: a) XB3 emission intensity change with decreasing pH; b) Emission intensity change for select wavelengths with changing pH; pKa1=4.07 (±0.01), pKa2=10.29 (±0.01). HB3: a) HB3 emission intensity change with decreasing pH; b) Emission intensity change for select wavelengths with changing pH; pKa1=5.91 (±0.07), pKa2=9.98 (±0.01).
(§2) The anion sensing properties were investigated in pH 7.4 aqueous HEPES buffer solution using fluorescence spectroscopy. At this pH value the protonated forms XB3H^+ and HB3H^+ are the dominant receptor species present in the aqueous solution. The amine pKa of XB3 (10.29) and HB3 (9.98) were experimentally determined by monitoring changes in fluorescence with pH. (FIG. 16).

[3] = Fluorescence titration with NaHS, Bindfit 1:1 analysis and LoD, pH 7.4 10 mM aqueous HEPES buffer; type: binding; parameters: key to Association constant Ka HS^− / LoD, Limit of Detection for HS−: NB: No binding observed; details: for Association constant Ka HS^−: 10 μM receptors in 10 mM aqueous HEPES buffer solution, pH = 7.4, 1:1 host:guest, errors in brackets; for LoD, Limit of Detection for HS−: 10 μM receptors in 10 mM aqueous HEPES buffer, pH 7.4
Procedure: (§3) Fluorescence titration experiments were performed using a Horiba Duetta at 293 K. The host molecules (XB1-3, and HB1-3) were dissolved in 10 mM HEPES aqueous buffer solution at pH 7.4 at a concentration of 10 μM. Na salts of the appropriate anion were dissolved in the solution of the host molecule to obtain a concentration. Aliquots of the anion solution were added to 1.00 mL of the host solution in a quartz cuvette, where the sample was then thoroughly mixed before fluorescence spectra were recorded. Association constants were obtained by global analysis using BindFit, using a host-guest 1:1 binding model.
as §2
The fluorescence emission, following excitation at 342 nm, was monitored upon the addition of sodium hydrosulfide and halide salts. […]
(§4) Bindfit analysis^23,24 of the titration data for XB and HB receptors was used to determine 1:1 host: guest stoichiometric anion association constants, as shown below in Table 1.

[4] = Fluorescence titration of buffered receptor against NaOH; details: buffered 10 μM receptor
Description: (§5) However, the increase in binding strength comes at the expense of a diminished degree of selectivity for HS^− as XB2 also binds Br^− and in particular I^− strongly.

[5] = Fluorescence titration with NaI, Bindfit 1:1 analysis, pH 7.4 10 mM aqueous HEPES buffer; type: binding; parameters: key to Association constant Ka I^−: NB: No binding observed; details: for Association constant Ka I^−: 10 μM receptors in 10 mM aqueous HEPES buffer solution, pH = 7.4, 1:1 host:guest, errors in brackets; for fluorescence response to I^−: excitation at 342 nm, pH 7.4 HEPES
Procedure: as §3, §2
(§6) The fluorescence emission, following excitation at 342 nm, was monitored upon the addition of sodium hydrosulfide and halide salts.
(§7) With XB2, both Br^− and I^− were sensed (FIG. 11), with the heavier halide also being detected by XB3H^+ (FIG. 13).
as §4

[6] = Fluorescence titration with NaCl, Bindfit 1:1 analysis, pH 7.4 10 mM aqueous HEPES buffer; type: binding; parameters: key to Association constant Ka Cl^−: NB: No binding observed; details: for Association constant Ka Cl^−: 10 μM receptors in 10 mM aqueous HEPES buffer solution, pH = 7.4, 1:1 host:guest, errors in brackets; for fluorescence response to Cl^−: excitation at 342 nm, pH 7.4 HEPES
Procedure: as §3, §2, §6, §7, §4

[7] = Fluorescence titration with NaBr, Bindfit 1:1 analysis, pH 7.4 10 mM aqueous HEPES buffer; type: binding; parameters: key to Association constant Ka Br^−: NB: No binding observed; details: for Association constant Ka Br^−: 10 μM receptors in 10 mM aqueous HEPES buffer solution, pH = 7.4, 1:1 host:guest, errors in brackets; for fluorescence response to Br^−: excitation at 342 nm, pH 7.4 HEPES
Procedure: as §3, §2, §6, §7, §4

[8] = Fluorescence emission change on addition of NaCl, NaBr, NaI, NaHS in pH 7.4 HEPES buffer (any anion); type: binding
Procedure: as §3, §6, §7

[9] = Electrospray mass spectrometry monitoring for reaction with excess HS^−; type: physicochemical; details: 10 μM in 10 mM HEPES aqueous buffer (7.4 pH), excess equivalents of HS^−
Description: as §5

[10] = Fluorescence titration of XB4 with NaI in unbuffered water, BindFit; type: binding; details: unbuffered water at 298 K
Procedure: (§8) Fluorescence titrations of XB4 were carried out with chloride, bromide, iodide and hydrosulfide.
(§9) BindFit analysis for each anion to determine binding isotherms (FIG. 20), and 1:1 stoichiometric association constants, shown in Table 2, was also conducted for XB4.

[11] = Fluorescence titration of XB4 with NaSH in unbuffered water, BindFit; type: binding; details: unbuffered water at 298 K
Procedure: as §8, §9

[12] = Fluorescence titration of XB4 with NaCl in unbuffered water, BindFit; type: binding; parameters: key: N.B.: No Binding; details: unbuffered water at 298 K; errors in parentheses
Procedure: as §8, §9

[13] = Fluorescence titration of XB4 with NaBr in unbuffered water, BindFit; type: binding; details: unbuffered water at 298 K
Procedure: as §8, §9

[14] = cited from earlier work
[15] = Solution-phase fluorescence sensing of BODIPY receptors in 70% water/30% acetonitrile; type: binding
Description: as §1

[16] = excitation at 342 nm, pH 7.4 HEPES

COCCOCCOCCOc1cc(COC(=O)c2cc(-n3cc(C4=C5C(C)=CC(C)=[N+]5[B-](F)(F)n5c(C)cc(C)c54)nn3)cc(-n3cc(C4=C5C(C)=CC(C)=[N+]5[B-](F)(F)n5c(C)cc(C)c54)nn3)c2)cc(OCCOCCOCCOC)c1OCCOCCOCCOC [HB-BDP-PEG, reference compound]
water solubility (Water solubility): generally water soluble
response for all anions, in particular HS^−, compared with XB-BDP-PEG [1]: significantly diminished

COCCOCCOCCOc1cc(COc2ccc3cc(-n4nnc(CNCc5nnn(-c6cc7ccc(OCc8cc(OCCOCCOCCOC)c(OCCOCCOCCOC)c(OCCOCCOCCOC)c8)cc7oc6=O)c5I)c4I)c(=O)oc3c2)cc(OCCOCCOCCOC)c1OCCOCCOCCOC [XB3]
pKa1 [2]: 4.07 (±0.01)
pKa2 [2]: 10.29 (±0.01)
amine pKa [2]: 10.29
Association constant Ka HS^− [3]: 5600 (530) M^−1
LoD, Limit of Detection for HS− ([3]; listed as XB3H^+): 24.6 µM
quenching on addition of HS^− [3, 16]: 38%
change in fluorescence on titration against NaOH [4]: no change in fluorescence
Association constant Ka I^− [5]: 46000 (14000) M^−1
fluorescence response to I^− [5]: detected
Association constant Ka Cl^− [6]: NB
fluorescence response to Cl^− [6]: no change was observed
Association constant Ka Br^− [7]: NB

COCCOCCOCCOc1cc(COc2ccc3cc(-n4cc(CNCc5cn(-c6cc7ccc(OCc8cc(OCCOCCOCCOC)c(OCCOCCOCCOC)c(OCCOCCOCCOC)c8)cc7oc6=O)nn5)nn4)c(=O)oc3c2)cc(OCCOCCOCCOC)c1OCCOCCOCCOC [HB3, reference compound]
pKa1 [2]: 5.91 (±0.07)
pKa2 [2]: 9.98 (±0.01)
amine pKa [2]: 9.98
Association constant Ka HS^− [3]: NB
LoD, Limit of Detection for HS− [3]: NB
fluorescent response to any anion [8]: no fluorescent response to any anion
Association constant Ka I^− [5]: NB
Association constant Ka Cl^− [6]: NB
Association constant Ka Br^− [7]: NB

COCCOCCOCCOc1cc(COc2ccc3cc(-n4nnc(-c5cncc(-c6nnn(-c7cc8ccc(OCc9cc(OCCOCCOCCOC)c(OCCOCCOCCOC)c(OCCOCCOCCOC)c9)cc8oc7=O)c6I)c5)c4I)c(=O)oc3c2)cc(OCCOCCOCCOC)c1OCCOCCOCCOC [XB1]
Association constant Ka HS^− [3]: 16500 (1600) M^−1
fluorescence intensity quenched ([3]; 10 equivalents of HS^−, excitation at 342 nm, pH 7.4 HEPES): 60%
reaction with HS^− (electrospray mass spectrometry) [9]: no evidence of reaction was observed
Association constant Ka I^− [5]: NB
fluorescence response to I^− [5]: no intensity diminutions
Association constant Ka Cl^− [6]: NB
fluorescence response to Cl^− [6]: no intensity diminutions
Association constant Ka Br^− [7]: NB
fluorescence response to Br^− [7]: no intensity diminutions

COCCOCCOCCN(CCCOc1ccc2cc(-n3nnc(CNCc4nnn(-c5cc6ccc(OCCCN(CCOCCOCCOC)CCOCCOCCOC)cc6oc5=O)c4I)c3I)c(=O)oc2c1)CCOCCOCCOC [XB4]
coumarin fluorescence response to iodide [10]: switching off
Association constant Ka I^− ([10]; errors in parentheses): >10^5 M^−1
coumarin fluorescence response to hydrosulfide [11]: switching off
Association constant Ka HS^− ([11]; errors in parentheses): 7500 (660) M^−1
Association constant Ka Cl^− [12]: N.B.
coumarin fluorescence response to bromide [13]: switching off
Association constant Ka Br^− ([13]; errors in parentheses): >10^5 M^−1

COCCOCCOCCOc1cc(COc2ccc3cc(-n4cc(-c5cncc(-c6cn(-c7cc8ccc(OCc9cc(OCCOCCOCCOC)c(OCCOCCOCCOC)c(OCCOCCOCCOC)c9)cc8oc7=O)nn6)c5)nn4)c(=O)oc3c2)cc(OCCOCCOCCOC)c1OCCOCCOCCOC [HB1, reference compound]
Association constant Ka HS^− [3]: NB
LoD, Limit of Detection for HS− [3]: NB
fluorescent response to any anion [8]: only minor fluorescence perturbations
Association constant Ka I^− [5]: NB
Association constant Ka Cl^− [6]: NB
Association constant Ka Br^− [7]: NB

S [Compound H2S, hydrogen sulphide]
pKa [14]: 7.0

COCCOCCOCCOc1cc(COC(=O)c2cc(-n3nnc(C4=C5C(C)=CC(C)=[N+]5[B-](F)(F)n5c(C)cc(C)c54)c3I)cc(-n3nnc(C4=C5C(C)=CC(C)=[N+]5[B-](F)(F)n5c(C)cc(C)c54)c3I)c2)cc(OCCOCCOCCOC)c1OCCOCCOCCOC [XB-BDP-PEG]
fluorescence perturbation by I^− [15]: Smaller, but notable, perturbations
fluorescence perturbation by SCN^− [15]: Smaller, but notable, perturbations
fluorescence response to Br [15]: only very small responses
fluorescence response to Cl [15]: only very small responses
emission quenching by HS^− ([15]; preliminary): ≈ 65%
water solubility (Water solubility): generally water soluble

COCCOCCOCCOc1cc(COc2ccc3cc(-n4nnc(-c5cc(-c6nnn(-c7cc8ccc(OCc9cc(OCCOCCOCCOC)c(OCCOCCOCCOC)c(OCCOCCOCCOC)c9)cc8oc7=O)c6I)c[n+](C)c5)c4I)c(=O)oc3c2)cc(OCCOCCOCCOC)c1OCCOCCOCCOC.O=S(=O)([O-])C(F)(F)F [XB2]
Association constant Ka HS^− [3]: 158000 (31000) M^−1
quenching on addition of HS^− [3, 16]: 45%
Association constant Ka I^− [5]: 103000 (24000) M^−1
fluorescence response to I^− [5]: sensed
Association constant Ka Cl^− [6]: NB
fluorescence response to Cl^− [6]: no change was observed
Association constant Ka Br^− [7]: 60800 M⁻¹
fluorescence response to Br^− [7]: sensed
